Experimental data as given in patent US10703764B2, “Benzopiperazine compositions as BET bromodomain inhibitors” (FORMA Therapeutics, Inc., priority 2013, dated 2020).
pIC50: −log10 of the molar value.

Columns and labels:
BRD4 BD1 = target: T1, BRD4 BD1 (Homo sapiens, UniProt O60885); assay: AlphaScreen binding assay, BRD4 Bromodomain 1
T1 construct: made in house
In short: (§1)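 An AlphaScreen competition format was used with His-BRD4 BD1 or BD2 and biotin-H4 K5/8/12/16-acetyl peptide, each at matched final levels of 50 nM (BD1) or 100 nM (BD2). Incubation in HEPES/NaCl buffer with 0.1% BSA and 0.01% Triton X-100 ran ≥1 h before IC50 determination.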

BRD4 BD2 = target: T2, BRD4 BD2 (Homo sapiens, UniProt O60885); assay: AlphaScreen binding assay, BRD4 Bromodomain 2
T2 construct: made in house
In short: as §1

MV4-11 cells = assay: Oncology cell growth assay (3-day proliferation, CellTiter-Glo); assay type: cell-based; conditions: Homo sapiens, MV4-11, 72 h, AML cell line MV4-11, 72 hours, compounds grouped by IC50 range, read-out: MV4-11 IC50 (inhibition of proliferation, gIC50)
In short: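 Luminescence from CellTiter-Glo served as the growth read-out after MV4-11 cells (3000/well) were cultured with compound for 72 hours. Final concentrations spanned 10 to 0.0045 μM in 3-fold steps. gIC50 values were derived by four-parameter logistic fitting relative to DMSO and cell-free controls.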

Row | pIC50 (BRD4 BD1) | pIC50 (BRD4 BD2) | pIC50 (MV4-11 cells) | SMILES
1 | 5.00 to 6.00 | 6.30 to 7.30 | < 6.30 | CC(=O)N1c2ccc(-c3ccc(S(C)(=O)=O)cc3)cc2N(C(=O)c2cc3cnccc3[nH]2)CC1C (stereo not drawn) [Example I-778]
2 | 5.00 to 6.00 | 6.30 to 7.30 | < 6.30 | CC(=O)N1c2ccc(-c3ccc(S(C)(=O)=O)cc3)cc2N(C(=O)C2CC2)C[C@@H]1C [Example I-781]
3 | 5.00 to 6.00 | 6.30 to 7.30 | < 6.30 | CC(=O)N1c2ccc(-c3ccc(S(C)(=O)=O)cc3)cc2N(C(=O)c2cc3cc(O)ccc3[nH]2)CC1C (stereo not drawn) [Example I-786]
4 | 6.00 to 7.00 | > 7.30 | 6.30 to 7.00 | CC(=O)N1c2ccc(-c3ccc(S(C)(=O)=O)cc3)cc2N(C(=O)c2cc3cccnc3[nH]2)CC1C (stereo not drawn) [Example I-789]
5 | 5.00 to 6.00 | 6.30 to 7.30 | < 6.30 | CC(=O)N1c2ccc(-c3ccc4ncccc4c3)cc2N(C(=O)COc2ccccc2)C[C@@H]1C [Example I-791]
6 | 5.00 to 6.00 | 6.30 to 7.30 | < 6.30 | CC(=O)N1c2ccc(-c3cccc(-c4ccccc4)c3)cc2N(C(=O)c2ccco2)C[C@@H]1C [Example I-793]
7 | 5.00 to 6.00 | 6.30 to 7.30 | < 6.30 | CC(=O)N1c2ccc(-c3ccccc3F)cc2N(C(=O)c2ccco2)C[C@@H]1C [Example I-795]
8 | 6.00 to 7.00 | > 7.30 | 6.30 to 7.00 | CC(=O)N1c2ccc(-c3ccc4c(ccn4C)c3)cc2N(C(=O)c2ccco2)C[C@@H]1C [Example I-796]
9 | 5.00 to 6.00 | 6.30 to 7.30 | < 6.30 | CC(=O)N1c2ccc(-c3ccc(-c4ccccc4)cc3)cc2N(C(=O)c2ccco2)C[C@@H]1C [Example I-798]
10 | 5.00 to 6.00 | 6.30 to 7.30 | < 6.30 | CC(=O)N1c2ccc(-c3ccc(C(=O)O)cc3)cc2N(C(=O)c2ccco2)C[C@@H]1C [Example I-799]
11 | 5.00 to 6.00 | 6.30 to 7.30 | 6.30 to 7.00 | CC(=O)N1c2ccc(-c3ccc(N4CCOCC4)nc3)cc2N(C(=O)c2ccco2)C[C@@H]1C [Example I-800]
12 | 6.00 to 7.00 | 6.30 to 7.30 | < 6.30 | CNC(=O)c1cccc(-c2ccc3c(c2)N(C(=O)c2ccco2)C[C@H](C)N3C(C)=O)c1 [Example I-801]
13 | 5.00 to 6.00 | > 7.30 | 6.30 to 7.00 | CC(=O)N1c2ccc(-c3ccccc3)cc2N(C(=O)c2ccco2)C[C@@H]1C [Example I-804]
14 | 5.00 to 6.00 | 6.30 to 7.30 | 6.30 to 7.00 | CC(=O)N1c2ccc(-c3ccc4c(c3)OCO4)cc2N(C(=O)c2ccco2)C[C@@H]1C [Example I-806]
15 | 6.00 to 7.00 | > 7.30 | 6.30 to 7.00 | COc1ccc(-c2ccc3c(c2)N(C(=O)c2ccco2)C[C@H](C)N3C(C)=O)cc1 [Example I-807]
16 | 6.00 to 7.00 | > 7.30 | 6.30 to 7.00 | CC(=O)N1c2ccc(-c3ccc(C(=O)N(C)C)cc3)cc2N(C(=O)c2ccco2)C[C@@H]1C [Example I-809]
17 | 6.00 to 7.00 | < 6.30 | 6.30 to 7.00 | CC(=O)N1c2ccc(-c3ccc(C(N)=O)cc3)cc2N(C(=O)c2ccco2)C[C@@H]1C [Example I-810]
18 | 5.00 to 6.00 | > 7.30 | 6.30 to 7.00 | CC(=O)N1c2ccc(-c3ccc(S(C)(=O)=O)cc3)cc2N(C(=O)c2ccco2)C[C@@H]1C [Example I-817]
19 | 6.00 to 7.00 | > 7.30 | 6.30 to 7.00 | CC(=O)N1c2ccc(-c3cnn(C)c3)cc2N(C(=O)c2ccco2)C[C@@H]1C [Example I-822]
20 | 5.00 to 6.00 | > 7.30 | 6.30 to 7.00 | CNC(=O)c1ccc(-c2ccc3c(c2)N(C(=O)c2ccco2)C[C@H](C)N3C(C)=O)cc1 [Example I-824]
21 | 6.00 to 7.00 | > 7.30 | < 6.30 | CC(=O)N1c2ccc(-c3ccc4c(c3)OCCO4)cc2N(C(=O)c2ccco2)C[C@@H]1C [Example I-825]
22 | 6.00 to 7.00 | > 7.30 | 6.30 to 7.00 | CC(=O)N1c2ccc(-c3cccc(C(=O)N4CCOCC4)c3)cc2N(C(=O)c2ccco2)C[C@@H]1C [Example I-838]

Continued, compound first:

Row | SMILES | pIC50 (BRD4 BD1) | pIC50 (BRD4 BD2) | pIC50 (MV4-11 cells)
23 | CC(=O)N1c2ccc(-c3cnn(Cc4cc(C)on4)c3)cc2N(C(=O)C2CC2)C[C@@H]1C [Example I-669] | 6.00 to 7.00 | 6.30 to 7.30 | < 6.30
24 | CC(=O)N1c2ccc(-c3cnn(CC(C)C)c3)cc2N(C(=O)C2CC2)CC1C (stereo not drawn) [Example I-670] | 6.00 to 7.00 | 6.30 to 7.30 | 6.30 to 7.00
25 | CC(=O)N1c2ccc(-c3cnn(CCF)c3)cc2N(C(=O)C2CC2)C[C@@H]1C [Example I-671] | 6.00 to 7.00 | 6.30 to 7.30 | 6.30 to 7.00
26 | CC(=O)N1c2ccc(-c3cnn(CCCO)c3)cc2N(C(=O)C2CC2)C[C@@H]1C [Example I-673] | 6.00 to 7.00 | 6.30 to 7.30 | 6.30 to 7.00
27 | CC(=O)N1c2ccc(-c3cnn(Cc4nonc4C)c3)cc2N(C(=O)OC(C)C)C[C@@H]1C [Example I-677] | 6.00 to 7.00 | 6.30 to 7.30 | 6.30 to 7.00
28 | CC(=O)N1c2ccc(-c3cnn(CC4CC4(F)F)c3)cc2N(C(=O)OC(C)C)C[C@@H]1C (stereo partly drawn) [Example I-678] | 6.00 to 7.00 | 6.30 to 7.30 | 6.30 to 7.00
29 | CC(=O)N1c2ccc(-c3cnn(CCC#N)c3)cc2N(C(=O)OC(C)C)C[C@@H]1C [Example I-679] | 6.00 to 7.00 | 6.30 to 7.30 | 6.30 to 7.00
30 | CC(=O)N1c2ccc(-c3cnn(Cc4ccnn4C)c3)cc2N(C(=O)OC(C)C)C[C@@H]1C [Example I-680] | 6.00 to 7.00 | 6.30 to 7.30 | 6.30 to 7.00
31 | CC(=O)N1c2ccc(-c3cnn(Cc4ccn(C)n4)c3)cc2N(C(=O)C2CC2)C[C@@H]1C [Example I-682] | 6.00 to 7.00 | 6.30 to 7.30 | 6.30 to 7.00
32 | CC(=O)N1c2ccc(-c3cnn(Cc4cncs4)c3)cc2N(C(=O)C2CC2)C[C@@H]1C [Example I-686] | 6.00 to 7.00 | 6.30 to 7.30 | 6.30 to 7.00
33 | CC(=O)N1c2ccc(-c3cnn(C[C@@H]4CCNC4)c3)cc2N(C(=O)OC(C)C)C[C@@H]1C [Example I-687] | 6.00 to 7.00 | > 7.30 | 6.30 to 7.00
34 | CC(=O)N1c2ccc(-c3cnn(C[C@H]4CCNC4)c3)cc2N(C(=O)OC(C)C)C[C@@H]1C [Example I-688] | 6.00 to 7.00 | 6.30 to 7.30 | 6.30 to 7.00
35 | CC(C)OC(=O)N1C[C@H](C)N(C(=O)C2CC2)c2ccc(-c3cnn(C[C@@H]4CCNC4)c3)cc21 [Example I-689] | 6.00 to 7.00 | 6.30 to 7.30 | < 6.30
36 | CC(C)OC(=O)N1C[C@H](C)N(C(=O)C2CC2)c2ccc(-c3cnn(C[C@H]4CCNC4)c3)cc21 [Example I-690] | 6.00 to 7.00 | 6.30 to 7.30 | < 6.30
37 | COC(=O)N1c2ccc(-c3cnn(C[C@H]4CCNC4)c3)cc2N(C(=O)OC(C)C)C[C@@H]1C [Example I-692] | 6.00 to 7.00 | 6.30 to 7.30 | < 6.30
38 | CC(=O)N1c2ccc(-c3cccc(-c4ccccc4)c3)cc2N(C(=O)COc2ccccc2)C[C@@H]1C [Example I-792] | < 5.00 | 6.30 to 7.30 | < 6.30
39 | CC(=O)N1c2ccc(-c3ccccc3F)cc2N(C(=O)COc2ccccc2)C[C@@H]1C [Example I-794] | 5.00 to 6.00 | < 6.30 | < 6.30
